Assay results: US20150087673A1, “METHODS FOR USING AND BIOMARKERS FOR AMPK-ACTIVATING COMPOUNDS” (RIGEL PHARMACEUTICALS, INC., priority 2013, published 2015)

tested on: AMPK; test: AMPK activation assay (enzyme-linked immunosorbent assay); type: cell-based
In short: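 Activator screen performed per well-known kit methods.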

Question: For `N#Cc1ccc(CN2CCC(NC(=O)c3ccc(N4CCC(Oc5ccc(C#N)cc5)CC4)nn3)CC2)cc1` [Compound 351, N-(1-(4-cyanobenzyl)piperidin-4-yl)-6-(4-(4-cyanophenoxy)piperidin-1-yl) pyridazine-3-carboxamide], which EC50 is on record?
Answer: The EC50 was less than 500 nM.

Question: `N#Cc1ccc(OC2CCN(C(=O)c3ccc(C(=O)NC4CCN(Cc5cocn5)CC4)cn3)CC2)cc1` [Compound 355, 6-(4-(4-cyanophenoxy)piperidine-1-carbonyl)-N-(1-(oxazol-4-ylmethyl)piperidin-4-yl)nicotinamide] was tested. Which EC50 did it give?
Answer: Its EC50 is greater than 10000 nM.

Question: For `N#Cc1ccc(OC2CCN(C(=O)c3ccc(C(=O)NC4CCN(Cc5nccs5)CC4)cn3)CC2)cc1` [Compound 356, 6-(4-(4-cyanophenoxy)piperidine-1-carbonyl)-N-(1-(thiazol-2-ylmethyl)piperidin-4-yl)nicotinamide], which EC50 is on record?
Answer: Its EC50 is less than 500 nM.

Question: Which EC50 does the source give for `CN(C)C(=O)c1ccc(OC2CCN(C(=O)c3ccc(C(=O)NC4CCN(Cc5ccc(C#N)cc5)CC4)nc3)CC2)cc1` [Compound 357, N-(1-(4-cyanobenzyl)piperidin-4-yl)-5-(4-(4-(dimethylcarbamoyl)phenoxy)piperidine-1-carbonyl)picolinamide] here?
Answer: Its EC50 is less than 500 nM.

Question: Which EC50 does the source give for `CC(=O)c1ccc(OC2CCN(C(=O)c3ccc(C(=O)NC4CCN(Cc5ccc(C#N)cc5)CC4)nc3)CC2)cc1` [Compound 358, 5-(4-(4-acetylphenoxy)piperidine-1-carbonyl)-N-(1-(4-cyanobenzyl)piperidin-4-yl)picolinamide] here?
Answer: Its EC50 is less than 500 nM.

Question: Which EC50 does the source give for `CC(=O)c1ccc(OC2CCN(C(=O)c3ccc(C(=O)Nc4ccc(Oc5ccc(F)cc5)nc4)nc3)CC2)cc1` [Compound 359, 5-(4-(4-acetylphenoxy)piperidine-1-carbonyl)-N-(6-(4-fluorophenoxy)pyridin-3-yl)picolinamide] here?
Answer: Its EC50 is less than 500 nM.

Question: For `CN(C)C(=O)c1ccc(OC2CCN(C(=O)c3ccc(C(=O)Nc4ccc(Oc5ccc(F)cc5)nc4)nc3)CC2)cc1` [Compound 360, 5-(4-(4-(dimethylcarbamoyl)phenoxy)piperidine-1-carbonyl)-N-(6-(4-fluorophenoxy)pyridin-3-yl)picolinamide], which EC50 is on record?
Answer: Its EC50 is less than 500 nM.

Question: For `N#Cc1ccc(CN2CCC(NC(=O)c3ccc(N4CCC(Oc5ccc(C(F)(F)F)cc5)CC4)nn3)CC2)cc1` [Compound 361, N-(1-(4-cyanobenzyl)piperidin-4-yl)-6-(4-(4-(trifluoromethyl)phenoxy)piperidin-1-yl)pyridazine-3-carboxamide], which EC50 is on record?
Answer: The EC50 was less than 500 nM.

Question: `COc1ccc(C(=O)C2CCN(c3ccc(C(=O)NC4CCN(Cc5ccc(C#N)cc5)CC4)nn3)CC2)cc1` [Compound 362, N-(1-(4-cyanobenzyl)piperidin-4-yl)-6-(4-(4-methoxybenzoyl)piperidin-1-yl)pyridazine-3-carboxamide] was tested. Which EC50 did it give?
Answer: Its EC50 is less than 500 nM.

Question: Which EC50 does the source give for `N#Cc1ccc(CN2CCC(NC(=O)c3ccc(C(=O)N4CCC(Oc5ccc([N+](=O)[O-])cc5)CC4)nc3)CC2)cc1` [Compound 363, N-(1-(4-cyanobenzyl)piperidin-4-yl)-6-(4-(4-nitrophenoxy)piperidine-1-carbonyl)nicotinamide] here?
Answer: Its EC50 is less than 500 nM.

Question: How did the EC50 turn out when `N#Cc1ccc(CN2CCC(NC(=O)c3ccc(C(=O)N4CCC(Oc5ccc(N)cc5)CC4)nc3)CC2)cc1` [Compound 364, 6-(4-(4-aminophenoxy)piperidine-1-carbonyl)-N-(1-(4-cyanobenzyl)piperidin-4-yl)nicotinamide] was run?
Answer: The EC50 was less than 500 nM.

Question: With `N#Cc1ccc(CN2CCC(NC(=O)c3ccc(C(=O)N4CCC(C(=O)c5ccc(N6CCCC6)cc5)CC4)cn3)CC2)cc1` [Compound 365, N-(1-(4-cyanobenzyl)piperidin-4-yl)-5-(4-(4-(pyrrolidin-1-yl)benzoyl)piperidine-1-carbonyl)picolinamide] as the compound, how does the EC50 read?
Answer: Its EC50 is less than 500 nM.

Question: How did the EC50 turn out when `CC(=O)Nc1ccc(OC2CCN(C(=O)c3ccc(C(=O)NC4CCN(Cc5ccc(C#N)cc5)CC4)cn3)CC2)cc1` [Compound 366, 6-(4-(4-acetamidophenoxy)piperidine-1-carbonyl)-N-(1-(4-cyanobenzyl)piperidin-4-yl)nicotinamide] was run?
Answer: The EC50 was less than 500 nM.

Question: With `CS(=O)(=O)Nc1ccc(OC2CCN(C(=O)c3ccc(C(=O)NC4CCN(Cc5ccc(C#N)cc5)CC4)cn3)CC2)cc1` [Compound 367, N-(1-(4-cyanobenzyl)piperidin-4-yl)-6-(4-(4-(methylsulfonamido)phenoxy)piperidine-1-carbonyl)nicotinamide] as the compound, how does the EC50 read?
Answer: Its EC50 is greater than 10000 nM.

Question: For `O=C(Nc1ccc(Oc2ccc(F)cc2)nc1)c1ccc(C(=O)N2CCC(C(=O)c3ccc(N4CCCC4)cc3)CC2)cn1` [Compound 368, N-(6-(4-fluorophenoxy)pyridin-3-yl)-5-(4-(4-(pyrrolidin-1-yl)benzoyl)piperidine-1-carbonyl)picolinamide], which EC50 is on record?
Answer: The EC50 was less than 500 nM.

Question: For `N#Cc1ccc(CN2CCC(NC(=O)c3ccc(C(=O)N4CCC(C(=O)c5ccc(C#N)cc5)CC4)cn3)CC2)cc1` [Compound 369, 5-(4-(4-cyanobenzoyl)piperidine-1-carbonyl)-N-(1-(4-cyanobenzyl)piperidin-4-yl)picolinamide], which EC50 is on record?
Answer: The EC50 was less than 500 nM.

Question: For `CN(C)c1ccc(OC2CCN(C(=O)c3ccc(C(=O)NC4CCN(Cc5ccc(C#N)cc5)CC4)cn3)CC2)cc1` [Compound 370, N-(1-(4-cyanobenzyl)piperidin-4-yl)-6-(4-(4-(dimethylamino)phenoxy)piperidine-1-carbonyl)nicotinamide], which EC50 is on record?
Answer: Its EC50 is less than 500 nM.

Question: With `N#Cc1ccc(CN2CCC(NC(=O)c3ccc(C(=O)N4CCC(Oc5ccc(NC(=O)CCOCCOCCOCCOCCNC(=O)CCC[C@@H]6SC[C@@H]7NC(=O)N[C@@H]76)cc5)CC4)nc3)CC2)cc1` [Compound 371, N-(1-(4-cyanobenzyl)piperidin-4-yl)-6-(4-(4-(17-oxo-20-((3aS,4S,6aR)-2-oxohexahydro-1H-thieno[3,4-d]imidazol-4-yl)-4,7,10,13-tetraoxa-16-azaicosanamido)phenoxy)piperidine-1-carbonyl)nicotinamide] as the compound, how does the EC50 read?
Answer: The EC50 was greater than 10000 nM.

Question: `CSc1ccc(C(=O)C2CCN(C(=O)c3ccc(C(=O)NC4CCN(Cc5ccc(C#N)cc5)CC4)nc3)CC2)cc1` [Compound 372, N-(1-(4-cyanobenzyl)piperidin-4-yl)-5-(4-(4-(methylthio)benzoyl)piperidine-1-carbonyl)picolinamide] was tested. Which EC50 did it give?
Answer: The EC50 was less than 500 nM.

Question: `COc1ccc(C(=O)C2CCN(C(=O)c3ccc(C(=O)NC4CCN(Cc5ccc([N+](=O)[O-])cc5)CC4)cn3)CC2)cc1` [Compound 373, 6-(4-(4-methoxybenzoyl)piperidine-1-carbonyl)-N-(1-(4-nitrobenzyl)piperidin-4-yl)nicotinamide] was tested. Which EC50 did it give?
Answer: The EC50 was less than 500 nM.

Question: `C[S+]([O-])c1ccc(C(=O)C2CCN(C(=O)c3ccc(C(=O)NC4CC[N+]([O-])(Cc5ccc(C#N)cc5)CC4)nc3)CC2)cc1` (centres unmarked) [Compound 374, 1-(4-cyanobenzyl)-4-(5-(4-(4-(methylsulfinyl)benzoyl)piperidine-1-carbonyl)picolinamido)piperidine 1-oxide] was tested. Which EC50 did it give?
Answer: The EC50 was greater than 10000 nM.

Question: `N#Cc1ccc(CN2CCC(NC(=O)c3ccc(C(=O)N4CCC(C(=O)c5ccc(-n6cccn6)cc5)CC4)cn3)CC2)cc1` [Compound 375, 5-(4-(4-(1H-pyrazol-1-yl)benzoyl)piperidine-1-carbonyl)-N-(1-(4-cyanobenzyl)piperidin-4-yl)picolinamide] was tested. Which EC50 did it give?
Answer: The EC50 was less than 500 nM.

Question: How did the EC50 turn out when `N#Cc1ccc(CN2CCC(NC(=O)c3ccc(C(=O)N4CCC(C(=O)c5ccc(N6CCOCC6)cc5)CC4)cn3)CC2)cc1` [Compound 376, N-(1-(4-cyanobenzyl)piperidin-4-yl)-5-(4-(4-morpholinobenzoyl)piperidine-1-carbonyl)picolinamide] was run?
Answer: Its EC50 is less than 500 nM.
